Laboratory results published in patent publication US12234499B2, “Compositions, methods, systems and/or kits for detecting antimicrobial resistance in bacteria” (priority 2016, dated 2025).
Read-outs that look alike come from different tables or passages of the source.

What was measured:
Type in all cases: cell-based
[1] = system: Bacteria expressing Ambler Class B carbapenemases; experiment: Growth tests with chelating agents added to antibiotic; details: FIG. 9, FIG. 10, FIG. 21 and FIG. 22 (with MEM/CLOX or DOR/CLOX)
Description: Non-limiting embodiments of detection tests for enteric and non-fermenting bacteria, with various concentration ranges of one or more antibiotics, and various concentration ranges for one or more inhibitors are shown in FIG. 1-FIG. 24 and FIG. 31. These figures illustrate the concentration of the antibiotic being tested (in μg/ml) along the x-axis (not every concentration is tested in every figure), and the amount of growth of bacteria in the sample in the y-axis. The boxes illustrate the median, interquartile range, non-outlier minimum and maximum; with asterisks representing single outliers. Each figure has a panel for Class A, Class B, and Class D producing bacteria, as well as a panel for non-carbapenemase producing bacteria (NEG). In some embodiments, the detection tests described herein are not performed by imaging a change in cell morphology.

K. oxytoca G1640 = experiment: Carbapenem MIC of study isolate; details: Klebsiella oxytoca, KPC
K. pneumoniae G1685 = experiment: Carbapenem MIC of study isolate; details: Klebsiella pneumoniae, CMY-2-like
K. pneumoniae 0042 = experiment: Carbapenem MIC of study isolate; details: Klebsiella pneumoniae, CTX-M-28, OmpK35, OmpK36
K. pneumoniae G1758 = experiment: Carbapenem MIC of study isolate; details: Klebsiella pneumoniae, CLSI MHT negative control
E. cloacae G1735 = experiment: Carbapenem MIC of study isolate; details: Enterobacter cloacae
K. pneumoniae G1511 = experiment: Carbapenem MIC of study isolate
S. marcescens G153 = experiment: Carbapenem MIC of study isolate; details: Serratia marcescens, KPC
K. pneumoniae 0109 = experiment: Carbapenem MIC of study isolate; details: Klebsiella pneumoniae, CTX-M-15, TEM-1, SHV-1
E. coli 0119 = experiment: Carbapenem MIC of study isolate; details: Escherichia coli, NDM
P. mirabilis 0156 = experiment: Carbapenem MIC of study isolate; details: Proteus mirabilis, KPC
P. aeruginosa G15019 = experiment: Carbapenem MIC of study isolate
E. cloacae G1637 = experiment: Carbapenem MIC of study isolate; details: Enterobacter cloacae, High AmpC
E. coli G164 = experiment: Carbapenem MIC of study isolate; details: Escherichia coli, High AmpC (Table 2), SHV-12-like (Table 4.2)
P. mirabilis G15185 = experiment: Carbapenem MIC of study isolate
M. morganii G1751 = experiment: Carbapenem MIC of study isolate; details: Morganella morganii, High AmpC
K. pneumoniae G157 = experiment: Carbapenem MIC of study isolate; details: Klebsiella pneumoniae, KPC-8
K. pneumoniae 0113 = experiment: Carbapenem MIC of study isolate; details: Klebsiella pneumoniae, KPC-3
A. baumannii G1734 = experiment: Carbapenem MIC of study isolate; details: Acinetobacter baumannii, OXA-40
K. pneumoniae 0043 = experiment: Carbapenem MIC of study isolate; details: Klebsiella pneumoniae, SHV-12, OmpK36
P. mirabilis G1745 = experiment: Carbapenem MIC of study isolate; details: Proteus mirabilis, CMY, TEM-1-like
E. aerogenes G1614 = experiment: Carbapenem MIC of study isolate; details: Klebsiella aerogenes, High AmpC
K. pneumoniae G1725 = experiment: Carbapenem MIC of study isolate; details: Klebsiella pneumoniae, KPC
E. cloacae G1691 = experiment: Carbapenem MIC of study isolate; details: Enterobacter cloacae; IMP-8-producing E. cloacae G1691
E. coli 0137 = experiment: Carbapenem MIC of study isolate; details: Escherichia coli, NDM-6
E. coli 0086 = experiment: Carbapenem MIC of study isolate; details: Escherichia coli, CTX-M-9
E. coli 0058 = experiment: Carbapenem MIC of study isolate; details: Escherichia coli, ESBL
K. pneumoniae G158 = experiment: Carbapenem MIC of study isolate; details: Klebsiella pneumoniae, KPC-8
A. baumannii 0052 = experiment: Carbapenem MIC of study isolate; details: Acinetobacter baumannii, OXA-58
E. cloacae G1693 = experiment: Carbapenem MIC of study isolate; details: Enterobacter cloacae, IMP-8 (Table 4.1)
K. pneumoniae G1675 = experiment: Carbapenem MIC of study isolate; details: Klebsiella pneumoniae, KPC-2, SHV-5-like
K. ozaenae 0096 = experiment: Carbapenem MIC of study isolate; details: KPC
E. coli G1693 = experiment: Carbapenem MIC of study isolate; details: Escherichia coli, High AmpC, S12like (Table 2), High AmpC (Table 4.2)
E. cloacae 0032 = experiment: Carbapenem MIC of study isolate; details: Enterobacter cloacae, KPC-3, TEM-1
P. aeruginosa G15 = experiment: Carbapenem MIC of study isolate; details: Pseudomonas aeruginosa, KPC-5
K. oxytoca 0147 = experiment: Carbapenem MIC of study isolate; details: KPC
P. aeruginosa G15557 = experiment: Carbapenem MIC of study isolate; details: VIM-like
E. aerogenes G1648 = experiment: Carbapenem MIC of study isolate; details: Klebsiella aerogenes, High AmpC
K. pneumoniae 0044 = experiment: Carbapenem MIC of study isolate; details: Klebsiella pneumoniae, CTX-M-15, TEM-1, SHV-1
P. mirabilis 0155 = experiment: Carbapenem MIC of study isolate; details: Proteus mirabilis, KPC
K. pneumoniae 0047 = experiment: Carbapenem MIC of study isolate; details: Klebsiella pneumoniae, OmpK35
C. freundii G1706 = experiment: Carbapenem MIC of study isolate; details: Citrobacter freundii, KPC
K. pneumoniae 0079 = experiment: Carbapenem MIC of study isolate; details: Klebsiella pneumoniae, CTX-M-14, OmpK35 (Table 4.2 also DHA-1)
[2] = Klebsiella pneumoniae, KPC-4, read-out: MIC
[3] = Pseudomonas aeruginosa, VIM-2, read-out: MIC
[4] = Proteus mirabilis, IMP-27, read-out: MIC
[5] = Klebsiella oxytoca, read-out: MIC
[6] = Pseudomonas aeruginosa, read-out: MIC

SMILES: O=C(O)c1cccc(C(=O)O)n1 [DPA, dipicolinic acid]
- concentration at which bacteria are sensitive [1]: 180 µg/mL

SMILES: C[C@@H](O)[C@H]1C(=O)N2C(C(=O)O)=C(S[C@@H]3CN[C@H](C(=O)N(C)C)C3)[C@H](C)[C@H]12 [Meropenem]
- MIC (K. oxytoca G1640): > 8 µg/mL
- MIC (K. pneumoniae G1685): > 8 µg/mL
- MIC (K. pneumoniae 0042): 4 µg/mL
- MIC (K. pneumoniae G1758): 1 µg/mL
- MIC (E. cloacae G1735): > 8 µg/mL
- MIC (K. pneumoniae G1511; [2]): 2 µg/mL
- MIC (S. marcescens G153): > 8 µg/mL
- MIC (K. pneumoniae 0109): 8 µg/mL
- MIC (E. coli 0119): > 8 µg/mL
- MIC (P. mirabilis 0156): 0.25 µg/mL
- MIC (P. aeruginosa G15019; [3]): 4 µg/mL
- MIC (E. cloacae G1637): > 8 µg/mL
- MIC (E. coli G164): > 8 µg/mL
- MIC (P. mirabilis G15185; IMP-27, listed as MEM): >8 µg/mL
- MIC (P. mirabilis G15185; [4]): > 8 µg/mL
- MIC (M. morganii G1751): 4 µg/mL
- MIC (K. pneumoniae G157): > 8 µg/mL
- MIC (K. pneumoniae 0113): > 8 µg/mL
- MIC (A. baumannii G1734): > 8 µg/mL
- MIC (K. pneumoniae 0043): > 8 µg/mL
- MIC (P. mirabilis G1745): ≤ 0.125 µg/mL
- MIC (E. aerogenes G1614): > 8 µg/mL
- MIC (K. pneumoniae G1725): > 8 µg/mL
- MIC (E. cloacae G1691): 0.5 µg/mL
- MIC (E. coli 0137): > 8 µg/mL
- MIC (E. coli 0086): > 8 µg/mL
- MIC (E. coli 0058): 0.5 µg/mL
- MIC (K. pneumoniae G158): > 8 µg/mL
- MIC (A. baumannii 0052): 8 µg/mL
- MIC (E. cloacae G1693): 0.5 µg/mL
- MIC (K. pneumoniae G1675): > 8 µg/mL
- MIC (K. ozaenae 0096): > 8 µg/mL
- MIC (E. coli G1693): > 8 µg/mL
- MIC (E. cloacae 0032): 2 µg/mL
- MIC (P. aeruginosa G15): > 8 µg/mL
- MIC (K. oxytoca 0147; listed as MEM): >8 µg/mL
- MIC (K. oxytoca 0147; [5]): > 8 µg/mL
- MIC (P. aeruginosa G15557; [6]): 4 µg/mL
- MIC (E. aerogenes G1648): > 8 µg/mL
- MIC (K. pneumoniae 0044): > 8 µg/mL
- MIC (P. mirabilis 0155): 8 µg/mL
- MIC (K. pneumoniae 0047): > 8 µg/mL
- MIC (C. freundii G1706): 0.25 µg/mL
- MIC (K. pneumoniae 0079): > 8 µg/mL

SMILES: C[C@@H](O)[C@H]1C(=O)N2C(C(=O)O)=C(S[C@@H]3CN[C@H](C(=O)Nc4cccc(C(=O)O)c4)C3)[C@H](C)[C@H]12 [Ertapenem]
- MIC (K. oxytoca G1640): > 1 µg/mL
- MIC (K. pneumoniae G1685): > 1 µg/mL
- MIC (K. pneumoniae 0042): > 1 µg/mL
- MIC (K. pneumoniae G1758): > 1 µg/mL
- MIC (E. cloacae G1735): > 1 µg/mL
- MIC (K. pneumoniae G1511; KPC-4, listed as ERT): >1 µg/mL
- MIC (K. pneumoniae G1511; [2]): > 1 µg/mL
- MIC (S. marcescens G153): > 1 µg/mL
- MIC (K. pneumoniae 0109): > 1 µg/mL
- MIC (E. coli 0119): > 1 µg/mL
- MIC (P. mirabilis 0156): 0.5 µg/mL
- MIC (P. aeruginosa G15019; [3]): > 1 µg/mL
- MIC (P. aeruginosa G15019; VIM-2, listed as ERT): >1 µg/mL
- MIC (E. cloacae G1637): > 1 µg/mL
- MIC (E. coli G164): > 1 µg/mL
- MIC (P. mirabilis G15185; IMP-27, listed as ERT): >1 µg/mL
- MIC (P. mirabilis G15185; [4]): > 1 µg/mL
- MIC (M. morganii G1751): > 1 µg/mL
- MIC (K. pneumoniae G157): > 1 µg/mL
- MIC (K. pneumoniae 0113): > 1 µg/mL
- MIC (A. baumannii G1734): > 1 µg/mL
- MIC (K. pneumoniae 0043): > 1 µg/mL
- MIC (P. mirabilis G1745): ≤ 0.25 µg/mL
- MIC (E. aerogenes G1614): > 1 µg/mL
- MIC (K. pneumoniae G1725): > 1 µg/mL
- MIC (E. cloacae G1691): > 1 µg/mL
- MIC (E. coli 0137): > 1 µg/mL
- MIC (E. coli 0086): > 1 µg/mL
- MIC (E. coli 0058): > 1 µg/mL
- MIC (K. pneumoniae G158): > 1 µg/mL
- MIC (A. baumannii 0052): > 1 µg/mL
- MIC (E. cloacae G1693): 0.5 µg/mL
- MIC (K. pneumoniae G1675): > 1 µg/mL
- MIC (K. ozaenae 0096): > 1 µg/mL
- MIC (E. coli G1693): > 1 µg/mL
- MIC (E. cloacae 0032): > 1 µg/mL
- MIC (P. aeruginosa G15): > 1 µg/mL
- MIC (K. oxytoca 0147; listed as ERT): >1 µg/mL
- MIC (K. oxytoca 0147; [5]): > 1 µg/mL
- MIC (P. aeruginosa G15557; [6]): > 1 µg/mL
- MIC (P. aeruginosa G15557; listed as ERT): >1 µg/mL
- MIC (E. aerogenes G1648): > 1 µg/mL
- MIC (K. pneumoniae 0044): > 1 µg/mL
- MIC (P. mirabilis 0155): > 1 µg/mL
- MIC (K. pneumoniae 0047): > 1 µg/mL
- MIC (C. freundii G1706): 1 µg/mL
- MIC (K. pneumoniae 0079): > 1 µg/mL
